The values that follow come from ChEMBL document CHEMBL5291721, “A preclinical secondary pharmacology resource illuminates target-adverse drug reaction associations of marketed drugs” (Nat Commun, 2023).

Bounds are passed on as bounds.

Assay [1] addresses Glutamate receptor ionotropic, NMDA 1 (Rattus norvegicus, UniProt P35439).
Assay [2] deals with 5-hydroxytryptamine receptor 2A (Homo sapiens, UniProt P28223). It counts as functional, cell-based.
The next assay deals with Melanocortin receptor 4 (Homo sapiens, UniProt P32245).
A further assay has as its target Histamine H2 receptor (Homo sapiens, UniProt P25021). It counts as functional, cell-based.
Assay [3] deals with T1, Neuropeptide Y receptor type 1 (Homo sapiens, UniProt P25929).
T1 sequence (P25929 whole entry): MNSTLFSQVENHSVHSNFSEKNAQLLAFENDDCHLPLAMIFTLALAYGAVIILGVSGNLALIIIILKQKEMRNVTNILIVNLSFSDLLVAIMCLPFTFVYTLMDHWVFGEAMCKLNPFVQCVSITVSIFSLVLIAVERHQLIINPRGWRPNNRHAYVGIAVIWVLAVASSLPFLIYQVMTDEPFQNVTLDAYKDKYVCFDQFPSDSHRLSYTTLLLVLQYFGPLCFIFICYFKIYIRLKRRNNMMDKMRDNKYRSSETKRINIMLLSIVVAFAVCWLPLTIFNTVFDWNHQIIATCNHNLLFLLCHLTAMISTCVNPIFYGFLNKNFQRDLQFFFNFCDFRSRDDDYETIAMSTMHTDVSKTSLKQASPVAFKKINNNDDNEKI

Assay [4] concerns the target T2, Alpha-1A adrenergic receptor (Homo sapiens, UniProt P35348).
T2 sequence (P35348 whole entry): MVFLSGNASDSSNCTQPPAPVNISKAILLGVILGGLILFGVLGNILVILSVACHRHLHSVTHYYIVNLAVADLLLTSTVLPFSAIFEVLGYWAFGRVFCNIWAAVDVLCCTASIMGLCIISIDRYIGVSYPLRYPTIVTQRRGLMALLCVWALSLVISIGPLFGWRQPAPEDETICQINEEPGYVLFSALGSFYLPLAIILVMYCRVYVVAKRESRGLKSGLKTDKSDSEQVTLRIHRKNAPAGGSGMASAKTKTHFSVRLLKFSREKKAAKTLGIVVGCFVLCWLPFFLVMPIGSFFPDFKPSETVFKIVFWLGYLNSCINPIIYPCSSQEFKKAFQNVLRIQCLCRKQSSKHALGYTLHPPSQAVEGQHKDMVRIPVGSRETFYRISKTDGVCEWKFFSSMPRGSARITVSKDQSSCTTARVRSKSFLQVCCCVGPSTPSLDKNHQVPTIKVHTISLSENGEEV
It counts as functional, cell-based.

In assay [5] the target is T2, Alpha-1A adrenergic receptor. It is filed as functional, cell-based. The source holds these as a separate data set.
The target in assay [6] is T3, Alpha-2A adrenergic receptor (Homo sapiens, UniProt P08913).
T3 sequence (P08913 whole entry): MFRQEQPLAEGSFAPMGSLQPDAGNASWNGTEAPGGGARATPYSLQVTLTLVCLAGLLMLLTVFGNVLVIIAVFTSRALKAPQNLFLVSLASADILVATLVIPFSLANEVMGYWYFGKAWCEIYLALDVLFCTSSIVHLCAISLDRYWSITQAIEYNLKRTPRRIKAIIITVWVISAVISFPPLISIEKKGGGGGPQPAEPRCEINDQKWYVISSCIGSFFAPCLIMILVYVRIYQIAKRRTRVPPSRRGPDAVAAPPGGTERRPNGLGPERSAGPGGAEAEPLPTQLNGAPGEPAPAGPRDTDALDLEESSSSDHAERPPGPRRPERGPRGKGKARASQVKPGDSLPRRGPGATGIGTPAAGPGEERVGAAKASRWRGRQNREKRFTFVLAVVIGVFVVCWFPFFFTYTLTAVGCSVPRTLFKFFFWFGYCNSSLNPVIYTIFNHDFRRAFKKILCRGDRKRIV

The target in a further assay is T4, Thromboxane A2 receptor (Homo sapiens, UniProt P21731).
T4 sequence (P21731 whole entry): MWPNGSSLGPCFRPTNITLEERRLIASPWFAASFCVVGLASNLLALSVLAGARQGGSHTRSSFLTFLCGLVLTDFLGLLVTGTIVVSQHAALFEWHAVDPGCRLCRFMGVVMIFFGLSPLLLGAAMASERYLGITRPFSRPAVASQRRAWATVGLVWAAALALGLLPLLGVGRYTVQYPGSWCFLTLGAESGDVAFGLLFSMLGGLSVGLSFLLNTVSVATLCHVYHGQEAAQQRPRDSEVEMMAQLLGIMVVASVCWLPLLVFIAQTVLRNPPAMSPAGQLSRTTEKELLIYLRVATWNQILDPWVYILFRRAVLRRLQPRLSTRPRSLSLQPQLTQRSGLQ
It is filed as functional, cell-based.

The target of assay [7] is T5, Amine oxidase [flavin-containing] A (Homo sapiens, UniProt P21397).
T5 sequence (P21397 whole entry): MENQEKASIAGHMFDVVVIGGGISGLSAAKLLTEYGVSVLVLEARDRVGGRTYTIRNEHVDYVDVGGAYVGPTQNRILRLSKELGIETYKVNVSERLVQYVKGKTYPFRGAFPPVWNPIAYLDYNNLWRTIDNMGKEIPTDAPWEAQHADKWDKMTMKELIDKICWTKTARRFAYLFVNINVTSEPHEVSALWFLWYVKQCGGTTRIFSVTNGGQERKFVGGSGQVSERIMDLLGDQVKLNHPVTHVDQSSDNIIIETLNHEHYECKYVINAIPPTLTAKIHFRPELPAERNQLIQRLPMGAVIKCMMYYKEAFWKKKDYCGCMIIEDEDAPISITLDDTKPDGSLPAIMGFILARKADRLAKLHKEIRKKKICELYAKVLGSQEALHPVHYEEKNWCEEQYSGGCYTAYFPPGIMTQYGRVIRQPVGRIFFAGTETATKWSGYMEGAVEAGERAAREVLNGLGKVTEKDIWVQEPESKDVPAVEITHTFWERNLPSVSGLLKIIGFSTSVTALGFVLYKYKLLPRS
It is filed as functional.
Note: assay procedure not described here.

5-hydroxytryptamine receptor 2A, sequence (P28223 whole entry): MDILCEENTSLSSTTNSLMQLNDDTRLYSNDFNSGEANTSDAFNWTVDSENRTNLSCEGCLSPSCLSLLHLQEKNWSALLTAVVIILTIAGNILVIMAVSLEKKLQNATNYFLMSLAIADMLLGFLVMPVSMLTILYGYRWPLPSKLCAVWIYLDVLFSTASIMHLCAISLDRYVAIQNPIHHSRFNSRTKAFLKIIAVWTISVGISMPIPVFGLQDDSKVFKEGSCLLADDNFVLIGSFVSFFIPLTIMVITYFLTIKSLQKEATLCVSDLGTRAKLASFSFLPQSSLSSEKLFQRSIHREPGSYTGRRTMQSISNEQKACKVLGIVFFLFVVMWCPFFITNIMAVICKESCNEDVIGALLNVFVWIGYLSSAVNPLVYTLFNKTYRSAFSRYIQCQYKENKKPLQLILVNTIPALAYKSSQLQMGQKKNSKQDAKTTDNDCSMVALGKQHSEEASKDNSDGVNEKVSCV
Histamine H2 receptor, sequence (P25021 whole entry): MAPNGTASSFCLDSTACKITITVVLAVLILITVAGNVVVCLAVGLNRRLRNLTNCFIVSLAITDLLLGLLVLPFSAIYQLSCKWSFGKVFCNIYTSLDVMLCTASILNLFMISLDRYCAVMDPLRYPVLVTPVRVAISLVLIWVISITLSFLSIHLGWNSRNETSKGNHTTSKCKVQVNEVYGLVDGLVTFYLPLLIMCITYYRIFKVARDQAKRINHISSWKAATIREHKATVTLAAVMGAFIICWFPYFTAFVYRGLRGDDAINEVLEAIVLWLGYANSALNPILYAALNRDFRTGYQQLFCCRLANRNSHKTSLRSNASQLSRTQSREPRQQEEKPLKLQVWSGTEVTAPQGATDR
Melanocortin receptor 4, sequence (P32245 whole entry): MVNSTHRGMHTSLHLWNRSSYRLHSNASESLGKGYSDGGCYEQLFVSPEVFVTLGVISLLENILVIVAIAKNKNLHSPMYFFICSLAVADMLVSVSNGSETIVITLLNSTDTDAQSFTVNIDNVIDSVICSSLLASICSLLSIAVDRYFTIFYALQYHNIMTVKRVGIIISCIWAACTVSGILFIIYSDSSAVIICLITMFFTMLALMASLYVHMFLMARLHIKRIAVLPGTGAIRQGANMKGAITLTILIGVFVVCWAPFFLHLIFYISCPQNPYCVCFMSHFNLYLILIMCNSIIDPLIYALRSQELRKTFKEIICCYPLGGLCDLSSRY

On to `CN1C(=O)CCS(=O)(=O)C1c1ccc(Cl)cc1` (stereo not drawn) [CHLORMEZANONE], for which the concentration at half-maximal activity (AC50) in assay [1] is > 10 µM; in assay [2] it was > 10 µM; on Melanocortin receptor 4, > 10 µM; at Histamine H2 receptor, > 30 µM; in assay [3], > 10 µM.
As for `CN1C(C(=O)Nc2ccccn2)=C(O)c2sc(Cl)cc2S1(=O)=O` [LORNOXICAM], the AC50 in assay [4] is > 30 µM; in assay [1], > 10 µM; in assay [2], > 30 µM; at Melanocortin receptor 4, > 30 µM; on Histamine H2 receptor it was > 10 µM; in [3], > 30 µM.
Take `CC1(C)NC(=O)N(c2ccc([N+](=O)[O-])c(C(F)(F)F)c2)C1=O` [NILUTAMIDE]: the AC50 (in assay [1]; in assay [2]; at Melanocortin receptor 4; at Histamine H2 receptor; in assay [5]; in [6]) was > 30 µM each time. Moreover, the concentration at half-maximal activity (AC50) in assay [3] is > 30 µM; at Thromboxane A2 receptor, > 3 µM; in [7], > 30 µM.
Turning to `Cc1c(C(=O)NN2CCCCC2)nn(-c2ccc(Cl)cc2Cl)c1-c1ccc(Cl)cc1` [RIMONABANT], the AC50 in assay [4] is > 30 µM; in assay [1], > 10 µM; in assay [2], 3.7 µM; at Melanocortin receptor 4, 28.2 µM; on Histamine H2 receptor, > 10 µM; in assay [3], > 30 µM.
For `Cn1nnc2c(C(N)=O)ncn2c1=O` [TEMOZOLOMIDE], the AC50 in [4] was > 30 µM; in assay [1] it was > 10 µM; in assay [2], > 30 µM; on Melanocortin receptor 4, > 30 µM; at Histamine H2 receptor, > 10 µM; in assay [3] it was > 30 µM.
On to `O=C(O[C@H]1C[C@H]2CC[C@@H](C1)[N+]21CCCC1)C(O)(c1ccccc1)c1ccccc1` [TROSPIUM], for which the AC50 (in assay [4]; in [1]; in assay [2]; on Melanocortin receptor 4; at Histamine H2 receptor; in [3]) was > 30 µM each time.
Regarding `Nc1ccn([C@H]2CC[C@@H](CO)O2)c(=O)n1` [ZALCITABINE], the AC50 in assay [4] is > 30 µM; in assay [1], > 10 µM; in [2], > 10 µM; at Melanocortin receptor 4 it was > 10 µM; on Histamine H2 receptor, > 10 µM; in assay [3] it was > 10 µM.
Consider `Cc1cn([C@H]2C[C@H](N=[N+]=[N-])[C@@H](CO)O2)c(=O)[nH]c1=O` [ZIDOVUDINE], for which the AC50 in [4] is > 30 µM; in assay [1], > 10 µM; on Melanocortin receptor 4, > 30 µM; on Histamine H2 receptor it was > 10 µM; in assay [5] it was > 30 µM; in assay [6], > 30 µM. Further, the AC50 (in assay [3]; at Thromboxane A2 receptor; in assay [7]) was > 30 µM throughout.
Regarding `NS(=O)(=O)Cc1noc2ccccc12` [ZONISAMIDE], the concentration at half-maximal activity (AC50) (in [1]; in [2]; at Melanocortin receptor 4; on Histamine H2 receptor; in assay [3]) was > 10 µM throughout.
